Assay results as given in patent US10703733B2, “MCL-1 inhibitors” (Gilead Sciences, Inc., priority 2018, dated 2020).
pEC50, pIC50: −log10 of the molar value. Read-outs that look alike come from different tables or passages of the source.

Key:
[1] = target: MCL-1/Bim interaction (recombinant human MCL-1 protein, residues 171-327; biotinylated human Bim peptide, residues 51-76) (Homo sapiens (Human), UniProt Q07820); experiment: MCL-1/Bim Binding AlphaLISA Assay; settings: 0.0625 nM 6xHis-Mcl-1 (171-327), 0.0625 nM biotinylated-Bim peptide
MCL-1/Bim interaction (recombinant human MCL-1 protein, residues 171-327; biotinylated human Bim peptide, residues 51-76), sequence (Q07820 171-327): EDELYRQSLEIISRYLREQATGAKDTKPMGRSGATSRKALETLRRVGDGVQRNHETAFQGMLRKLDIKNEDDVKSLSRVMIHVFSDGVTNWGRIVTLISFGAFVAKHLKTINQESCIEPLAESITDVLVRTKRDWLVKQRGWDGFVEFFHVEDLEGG
Protocol: MCL-1/Bim Binding AlphaLISA Assay.
Inhibition of the MCL-1 and Bim interaction was measured in the following AlphaLISA assay.
Recombinant human MCL-1 protein (C-terminal 6×His Tagged Mcl-1 containing residues 171-327) was generated at Gilead Sciences, Inc. (Foster City, Calif.). A biotinylated peptide derived from human Bim (residues 51-76) was purchased from CPC Scientific (Sunnyvale, Calif.). (CPC 834113). AlphaLISA anti-6His-acceptor beads (AL128R), AlphaScreen Streptavidin donor beads (6760002B), and Proxiplate-384 Plus (6008289) were purchased from PerkinElmer.
The AlphaLISA assay was performed in a 384-well Proxiplate in a total volume of […]. The reaction mixture contained 0.0625 nM 6×His-Mcl-1 (171-327), 0.0625 nM biotinylated-Bim peptide, 10 μg/mL AlphaLISA anti-6×His-AlphaLISA acceptor beads, […] AlphaScreen streptavidin donor beads, and serially diluted test compounds in the binding buffer (20 mM Hepes, pH 7.5 (Teknova H1035); 150 mM NaCl (Promega V4221); 0.002% Brij 35 (Thermo Scientific 20150); 1 mM Dithiothreitol (DTT) Solution (Affymetrix 70726); 0.01% BSA (BioLabs B9000S)). 1,000×test compounds were pre-spotted onto 384-well Proxiplate (Labcyte Echo) by Echo 555 Liquid Handler (Labcyte Inc., San Jose, Calif.) followed by incubation of 5 μl Mcl-1(171-327) for 1 hour. Then 5 μL Bim (51-76) was added and incubated for 2 hours. Five μL AlphaLISA anti-6His-AlphaLISA acceptor beads were then added for 1 hour followed by addition of 5 μL AlphaScreen streptavidin donor beads for 1 hour. The reaction plates were then read on an Envision multimode reader (PerkinElmer) using AlphaScreen settings. […] Percent inhibition was calculated as shown below: % Inhibition=100%*(Well−Neg)/(Pos−Neg) Neg: negative control, DMSO Pos: positive control, no Mcl-1 protein, no biotinylated-Bim peptide

SKBR3 cells = experiment: SKBR3 Cell Viability Assay (CellTiter Glo); type: cell-based; settings: CellTiter Glo luminescence, read-out: MCL-1 CV SKBR3 EC50
Protocol: SKBR3 Cell Viability Assay Materials
SKBR3 Cells (ATCC HTB-30) were obtained from ATCC (Manassas, Va.) and cultured in McCoy 5A's medium (ATCC 30-2007)+10% fetal bovine serum (SH30071.03, HyClone, Pittsburgh, Pa.) plus 1× Penicillin-Streptomycin L-glutamine (Corning 30-009-C1, Corning, N.Y.)).
The cell viability assay was conducted in a 384-well tissue culture plate (Grenier 781086, Monroe, N.C.) in a total volume of 70 μL. Test compounds were prepared in 1,000×, serially diluted, and pre-spotted into 384-well tissue culture plate by Echo 555 Liquid Handler (Labcyte Inc., San Jose, Calif.). Seventy μl of 6,000 SKBR3 cells were dispensed into each well of the plate and incubated at 37° C. with 5% CO2 for 72 hours. At the end of incubation, 2× CellTiter Glo (CTG) reagents (1 part buffer with 2 parts substrate) (Promega, Madison, Wis.) were prepared, and the plate and the reagent were equilibrated to room temperature for 30 minutes. CTG reagent was added to each plate by Biomek FX at 20 μL/well with 5 times pipetting and mixing to induce cell lysis. Luminescence was read by Envision multimode reader (PerkinElmer). […] Percent inhibition was calculated as followed: % Inhibition=100%*(Well−Neg)/(Pos−Neg) Neg, negative control, DMSO Pos, positive control, 10 μM Puromycin

Row | SMILES | pIC50 [1] | pEC50 (SKBR3 cells; Homo sapiens, SK-BR-3, 72 h) | pEC50 (SKBR3 cells; 72 hours)
1 | CO[C@H]1/C=C/CCC[S@@](=O)(NC(=O)CCc2cnoc2)=NC(=O)c2ccc3c(c2)N(C[C@@H]2CC[C@H]21)C[C@@]1(CCCc2cc(Cl)ccc21)CO3 [Example 57] | 9.70 | 6.22 | –
2 | CO[C@H]1/C=C/CCC[S@@](=O)(NC(=O)CCc2nccs2)=NC(=O)c2ccc3c(c2)N(C[C@@H]2CC[C@H]21)C[C@@]1(CCCc2cc(Cl)ccc21)CO3 [Example 91] | 10.00 | 6.21 | –
3 | CO[C@H]1/C=C/C[C@H](C)C[S@@](=O)(NC(=O)N[C@H]2CC23CCOC3)=NC(=O)c2ccc3c(c2)N(C[C@@H]2CC[C@H]21)C[C@@]1(CCCc2cc(Cl)ccc21)CO3 (single isomer, unassigned) [Example 341] | 10.49 | 7.40 | –
4 | CO[C@H]1/C=C/C[C@H](C)C[S@@](=O)(NC(=O)N[C@H]2C[C@@H](COC(=O)N(C)C)C2)=NC(=O)c2ccc3c(c2)N(C[C@@H]2CC[C@H]21)C[C@@]1(CCCc2cc(Cl)ccc21)CO3 [Example 336] | 10.00 | 7.22 | –
5 | CO[C@H]1/C=C/CCC[S@@](=O)(NC(=O)Cc2ccnn2C)=NC(=O)c2ccc3c(c2)N(C[C@@H]2CC[C@H]21)C[C@@]1(CCCc2cc(Cl)ccc21)CO3 [Example 29] | 9.22 | 5.74 | –
6 | COC[C@@H]1CC[C@H]1NC(=O)N[S@@]1(=O)=NC(=O)c2ccc3c(c2)N(C[C@@H]2CC[C@H]2[C@@H](OC)/C=C/C[C@H](C)C1)C[C@@]1(CCCc2cc(Cl)ccc21)CO3 [Example 307] | 9.92 | 7.01 | –
7 | CO[C@H]1/C=C/CCC[S@@](=O)(NC(=O)CCc2ccccn2)=NC(=O)c2ccc3c(c2)N(C[C@@H]2CC[C@H]21)C[C@@]1(CCCc2cc(Cl)ccc21)CO3 [Example 47] | 10.00 | 6.12 | –
8 | CO[C@H]1/C=C/C[C@H](C)C[S@@](=O)(NC(=O)c2ccc3ncnn3c2)=NC(=O)c2ccc3c(c2)N(C[C@@H]2CC[C@H]21)C[C@@]1(CCCc2cc(Cl)ccc21)CO3 [Example 432] | 10.15 | 6.77 | –
9 | COC[C@@H]1C[C@@H]1NC(=O)N[S@@]1(=O)=NC(=O)c2ccc3c(c2)N(C[C@@H]2CC[C@H]2[C@@H](OC)/C=C/C[C@H](C)C1)C[C@@]1(CCCc2cc(Cl)ccc21)CO3 [Example 315] | 9.90 | 6.78 | –
10 | CO[C@H]1/C=C/C[C@H](C)C[S@@](=O)(NC(=O)N[C@H]2C[C@@H]2C)=NC(=O)c2ccc3c(c2)N(C[C@@H]2CC[C@H]21)C[C@@]1(CCCc2cc(Cl)ccc21)CO3 [Example 117] | 9.95 | 7.08 | –
11 | CO[C@H]1/C=C/CCC[S@@](=O)(NC(=O)NC2(C(F)(F)F)CC2)=NC(=O)c2ccc3c(c2)N(C[C@@H]2CC[C@H]21)C[C@@]1(CCCc2cc(Cl)ccc21)CO3 [Example 32] | 8.85 | 5.83 | –
12 | CO[C@H]1/C=C/CCC[S@@](=O)(NC(=O)CCc2ccccc2)=NC(=O)c2ccc3c(c2)N(C[C@@H]2CC[C@H]21)C[C@@]1(CCCc2cc(Cl)ccc21)CO3 [Example 97] | 9.22 | 6.10 | –
13 | COCC1(O)CN(C(=O)N[S@@]2(=O)=NC(=O)c3ccc4c(c3)N(C[C@@H]3CC[C@H]3[C@@H](OC)/C=C/C[C@H](C)C2)C[C@@]2(CCCc3cc(Cl)ccc32)CO4)C1 [Example 268] | 10.24 | 7.05 | –
14 | CCC(=O)N[S@@]1(=O)=NC(=O)c2ccc3c(c2)N(C[C@@H]2CC[C@H]2[C@@H](OCCN2CCOCC2)/C=C/CCC1)C[C@@]1(CCCc2cc(Cl)ccc21)CO3 (single isomer, unassigned) [Example 67] | 8.92 | 5.98 | –
15 | CO[C@H]1/C=C/C[C@H](C)C[S@@](=O)(NC(=O)C2CC3(CCOC3)C2)=NC(=O)c2ccc3c(c2)N(C[C@@H]2CC[C@H]21)C[C@@]1(CCCc2cc(Cl)ccc21)CO3 (some centres unmarked) [Example 125] | 10.13 | 7.05 | –
16 | CCC(=O)N[S@]1(=O)=NC(=O)c2ccc3c(c2)N(C[C@@H]2CC[C@H]2[C@@H](O)/C=C/CCC1)C[C@@]1(CCCc2cc(Cl)ccc21)CO3 [Example 63] | – | – | 5.01
17 | CCOC(=O)N[S@]1(=O)=NC(=O)c2ccc3c(c2)N(C[C@@H]2CC[C@H]2[C@@H](OC)/C=C/CCC1)C[C@@]1(CCCc2cc(Cl)ccc21)CO3 [Example 9] | – | – | 5.11
18 | CCNC(=O)N[S@@]1(=O)=NC(=O)c2ccc3c(c2)N(C[C@@H]2CC[C@H]2[C@@H](OC)CCCCC1)C[C@@]1(CCCc2cc(Cl)ccc21)CO3 [Example 14] | – | – | 6.45
19 | CCC(=O)N[S@@]1(=O)=NC(=O)c2ccc3c(c2)N(C[C@@H]2CC[C@H]2[C@@H](OC)CCCCC1)C[C@@]1(CCCc2cc(Cl)ccc21)CO3 [Example 11] | – | – | 5.00
20 | CO[C@H]1/C=C/C[C@H](C)[C@@H](C)S(=O)(=O)NC(=O)c2ccc3c(c2)N(C[C@@H]2CC[C@H]21)C[C@@]1(CCCc2cc(Cl)ccc21)CO3 [Comparative Example 1, reference compound] | – | – | 5.66
21 | CCC(=O)N[S@]1(=O)=NC(=O)c2ccc3c(c2)N(C[C@@H]2CC[C@H]2[C@@H](OC)/C=C/CCCC1)C[C@@]1(CCCc2cc(Cl)ccc21)CO3 [Example 69] | – | – | 5.11
22 | COC1Cc2cc(C(=O)N[S@@]3(=O)=NC(=O)c4ccc5c(c4)N(C[C@@H]4CC[C@H]4[C@@H](OC)/C=C/C[C@H](C)C3)C[C@@]3(CCCc4cc(Cl)ccc43)CO5)cn2C1 (some centres unmarked) [Example 205] | – | – | 7.23
23 | CCC(=O)N[S@@]1(=O)=NC(=O)c2ccc3c(c2)N(C[C@@H]2CC[C@H]2[C@@H](O)/C=C/CCC1)C[C@@]1(CCCc2cc(Cl)ccc21)CO3 [Example 62] | – | – | 5.61
24 | CO[C@H]1/C=C/C[C@H](C)[C@@H](C)[S@@](=O)(NC(=O)c2cnn(C3COC3)c2)=NC(=O)c2ccc3c(c2)N(C[C@@H]2CC[C@H]21)C[C@@]1(CCCc2cc(Cl)ccc21)CO3 [Example 152] | – | – | 7.25
25 | CCC(=O)NS1(=O)=NC(=O)c2ccc3c(c2)N(C[C@@H]2CC[C@H]2[C@@H](OC)/C=C/CCC1)C[C@@]1(CCCc2cc(Cl)ccc21)CO3 (single isomer, unassigned) [Example 4] | – | – | 6.05
26 | CCNC(=O)N[S@@]1(=O)=NC(=O)c2ccc3c(c2)N(C[C@@H]2CC[C@H]2[C@@H](OC)CCCCC1)C[C@@]1(CCCc2cc(Cl)ccc21)CO3 [Example 13] | – | – | 5.48
27 | CO[C@H]1/C=C/C[C@H](C)[C@@H](C)[S@@](=O)(NC(=O)C(F)(F)F)=NC(=O)c2ccc3c(c2)N(C[C@@H]2CC[C@H]21)C[C@@]1(CCCc2cc(Cl)ccc21)CO3 [Example 370] | – | 5.24 | –
28 | CO[C@H]1/C=C/C[C@H](C)C[S@@](=O)(NC(=O)C2CC(OC(F)F)C2)=NC(=O)c2ccc3c(c2)N(C[C@@H]2CC[C@H]21)C[C@@]1(CCCc2cc(Cl)ccc21)CO3 (some centres unmarked) [Example 431] | – | 6.63 | –
29 | CO[C@H]1/C=C/CCC[S@@](N)(=O)=NC(=O)c2ccc3c(c2)N(C[C@@H]2CC[C@H]21)C[C@@]1(CCCc2cc(Cl)ccc21)CO3 [Example 5] | – | – | 5.00
